In patent US20070004660A1, “Synergistic Modulation of Flt3 Kinase Using Alkylquinolines and Alkylquinazolines” (priority 2005, published 2007):

test system: MV4-11 cells; assay: Inhibition of MV4-11 cell proliferation (CellTiterGlo, 72 h); type: cell-based; conditions: Homo sapiens; 72 h growth inhibition; uncertainty ±20%

| IC50 | Compound |
| --- | --- |
| 0.042 µM | CCN(CC)CCCOc1ccc2c(C3CCN(C(=O)Nc4ccc(OC(C)C)cc4)CC3)ncnc2c1 [Example 36, 4-[7-(3-Diethylamino-propoxy)-quinazolin-4-yl)-piperidine-1-carboxylic acid (4-isopropoxy-phenyl)-amide] |
| 0.016 µM | CC(C)Oc1ccc(NC(=O)N2CCC(c3ncnc4cc(OCCCN5CCOCC5)ccc34)CC2)cc1 [Example 38] |
| 0.014 µM | CC(C)Oc1ccc(NC(=O)N2CCC(c3ncnc4cc(OCCCN5CCN(C)CC5)ccc34)CC2)cc1 [Example 39] |
| 0.235 µM | COc1ccc2c(C3CCN(C(=O)Nc4ccc(C(C)C)cc4)CC3)ncnc2c1 [Example 32, 4-(7-Methoxy-quinazolin-4-yl)-piperidine-1-carboxylic acid (4-isopropyl-phenyl)-amide] |
| 0.05 µM | CC(C)Oc1ccc(NC(=O)N2CCC(c3ncnc4cc(OCCCN5CCCCC5)ccc34)CC2)cc1 [Example 33, 4-(7-(3-Piperidin-1-yl-propoxy)-quinazolin-4-yl)-piperidine-1-carboxylic acid (4-isopropoxy-phenyl)-amide] |
| 2.2 µM | COCCOc1ccc(NC(=O)N2CCC(c3ncnc4cc(OC)c(OC)cc34)CC2)cc1 [Example 40, 4-(6,7-Dimethoxy-quinazolin-4-yl)-piperidine-1-carboxylic acid [4-(2-methoxy-ethoxy)-phenyl]-amide] |
| 0.165 µM | CC(C)Oc1ccc(NC(=O)N2CCC(c3ncnc4cc(OCCN5CCOCC5)ccc34)CC2)cc1 [Example 37] |
| 0.095 µM | CCN(CC)CCOc1ccc2c(C3CCN(C(=O)Nc4ccc(OC(C)C)cc4)CC3)ncnc2c1 [Example 35, 4-[7-(2-Diethylamino-ethoxy)-quinazolin-4-yl)-piperidine-1-carboxylic acid (4-isopropoxy-phenyl)-amide] |
| 0.095 µM | CC(C)Oc1ccc(NC(=O)N2CCC(c3ncnc4cc(OCCN5CCCCC5)ccc34)CC2)cc1 [Example 34, 4-(7-(2-Piperindin-1-yl-ethoxy)-quinazolin-4-yl)-piperidine-1-carboxylic acid (4-isopropoxy-phenyl)-amide] |

The next lines start with the compound.

| Compound | IC50 |
| --- | --- |
| COc1cc2ncnc(C3CCN(C(=O)Nc4ccc(NC(C)=O)cc4)CC3)c2cc1OC [Example 25, 4-(6,7-Dimethoxy-quinazolin-4-yl)-piperidine-1-carboxylic acid (4-acetylamino-phenyl)-amide] | > 10 µM |
| O=C1CCCN1CCOc1cc2ncnc(C3CCN(C(=O)Nc4ccc(N5CCCC5)cc4)CC3)c2cc1F [Compound 206, 4-{6-Fluoro-7-[2-(2-oxo-pyrrolidin-1-yl)-ethoxy]-quinazolin-4-yl}-piperidine-1-carboxylic acid (4-pyrrolidin-1-yl-phenyl)-amide] | 0.061 µM |
| COc1cc2c(C3CCN(C(=O)Nc4ccc(N5CCCC5)cc4)CC3)ncnc2cc1OCCN1CCCC1=O [Compound 209, 4-{6-Methoxy-7-[2-(2-oxo-pyrrolidin-1-yl)-ethoxy]-quinazolin-4-yl}-piperidine-1-carboxylic acid (4-pyrrolidin-1-yl-phenyl)-amide] | 0.026 µM |
| CC(C)Oc1ccc(NC(=O)N2CCC(c3ncnc4cc(Cl)ccc34)CC2)cc1 [Example 29, 4-(7-Chloro-quinazolin-4-yl)-piperidine-1-carboxylic acid (4-isopropoxy-phenyl)-amide] | 0.315 µM |
| COc1cc2ncnc(C3CCN(C(=O)Cc4ccc(C(C)C)cc4)CC3)c2cc1OC [Example 28, 1-[4-(6,7-Dimethoxy-quinazolin-4-yl)-piperidin-1-yl]-2-(4-isopropyl-phenyl)-ethanone] | 0.015 µM |
| COc1cc2ncnc(C3CCN(C(=O)Nc4ccc(N(C)C)cc4)CC3)c2cc1OC [Example 26, 4-(6,7-Dimethoxy-quinazolin-4-yl)-piperidine-1-carboxylic acid (4-dimethylamino-phenyl)-amide] | 0.204 µM |
| COc1cc2c(C3CCN(C(=O)Nc4ccc(N5CCCC5)cc4)CC3)ncnc2cc1N1CCOCC1 [Compound 211, 4-(6-Methoxy-7-morpholin-4-yl-quinazolin-4-yl)-piperidine-1-carboxylic acid (4-pyrrolidin-1-yl-phenyl)-amide] | 0.02 µM |
| O=C(Nc1ccc(N2CCCC2)cc1)N1CCC(c2ncnc3cc(N4CCOCC4)c(F)cc23)CC1 [Compound 210, 4-(6-Fluoro-7-morpholin-4-yl-quinazolin-4-yl)-piperidine-1-carboxylic acid (4-pyrrolidin-1-yl-phenyl)-amide] | 0.102 µM |
| CC(C)c1ccc(NC(=O)N2CCC(c3ncnc4cc(Cl)ccc34)CC2)cc1 [Example 30, 4-(7-Chloro-quinazolin-4-yl)-piperidine-1-carboxylic acid (4-isopropyl-phenyl)-amide] | 0.38 µM |
| COc1ccc2c(C3CCN(C(=O)Nc4ccc(OC(C)C)cc4)CC3)ncnc2c1 [Example 31, 4-(7-Methoxy-quinazolin-4-yl)-piperidine-1-carboxylic acid (4-isopropoxy-phenyl)-amide] | 0.085 µM |
| COc1cc2c(C3CCN(C(=O)Nc4ccc(N5CCOCC5)cc4)CC3)ncnc2cc1N1CCOCC1 [Compound 212, 4-(6-Methoxy-7-morpholin-4-yl-quinazolin-4-yl)-piperidine-1-carboxylic acid (4-morpholin-4-yl-phenyl)-amide] | 0.367 µM |
| COc1cc2ncnc(C3CCN(C(=O)Nc4ccc(-n5ccnc5)cc4)CC3)c2cc1OC [Example 3, 4-(6,7-Dimethoxy-quinazolin-4-yl)-piperidine-1-carboxylic acid (4-imidazol-1-yl-phenyl)-amide] | 0.636 µM |
| COc1cc2ncnc(C3CCN(C(=O)Nc4ccc(I)cc4)CC3)c2cc1OC [Example 2, 4-(6,7-Dimethoxy-quinazolin-4-yl)-piperidine-1-carboxylic acid (4-iodo-phenyl)-amide] | 0.752 µM |
| COc1cc2c(C3CCN(C(=O)Nc4ccc(N5CCOCC5)cc4)CC3)ncnc2cc1OCCCN1CCN(C)CC1 [Compound 207, 4-{6-Methoxy-7-[3-(4-methyl-piperazin-1-yl)-propoxy]-quinazolin-4-yl}-piperidine-1-carboxylic acid (4-morpholin-4-yl-phenyl)-amide] | 0.048 µM |
